Measurements published in patent US4666929A, “Anthranilic acid ester derivatives and antiinflammatory and analgetic external preparations containing the same” (Shiseido Company Ltd., priority 1985, dated 1987).

Tests used:
[1] = system: pain induced by the brewer's yeast; assay: Evaluation Test Example 7 (Analgetic Activity), Randall-Selitto method; assay type: in vivo, rat; settings: topical, 2.5 mg/paw, 5 hours after injection of brewer's yeast
Description: This method is admitted as a standard method for evaluating non-anesthetic analgesic agent.
The test sample compounds were applied to the both foot pad of hind paws of the rats each in an application amount of 50 μl as a 2.5% ethanol solution. After one hour, 50 μl each of the ethanol solution of the sample compound was again applied and 0.1 ml of a 5% brewer's yeast/physiological saline was immediately subcutaneously applied to one foot pad of the rat as a pain inducing substance. After a predetermined time period, the weight of the pain generation was measured using a horizontal balance type presser and the decrease rate (P1) of the pain threshold value was determined. The above-mentioned evaluation test procedure was also carried out in the control rat group, except that the solvent containing no sample compounds was applied. Thus, the decrease rate (P0) of the pain threshold value in the control group was determined. The inhibition (%) of the pain induced by the brewer's yeast was calculated as follows: [formula] When this value is large, the analgetic activity is high.

[2] = system: ICR female mice; assay: in vivo
Description: (§1) The evaluation test was carried out using ICR female mice (i.e., body weight=18 to 22 g, 10 mice in each group).
(§2) The sample compounds listed in Table 3 were dispersed in 2.0% carboxymethyl cellulose/physiological saline solution and orally administered in a given amount by a peroral syringe. After the administration, the toxic conditions were observed and the oral acute toxicity (LD50) was calculated from the death number according to a Van Der Werden method.

[3] = in vivo; settings: mouse, in vivo; oral, ICR female mice
Description: as §1, §2

[4] = system: carrageenan foot pad edema; assay: Evaluation Test Example 4 (Antiinflammatory Activity), rat/carrageenan foot pad edema method; assay type: in vivo; settings: oral, 100 mg/kg; for Prevention % (carrageenan edema): 5 hours after λ-carrageenan injection
Description: (§3) The antiinflammatory effects of the present compounds were determined according to the so-called rat/carrageenan foot pad edema method. This method is admitted as a standard test method for determining antiinflammatory effects, because this method has a high correlationship with human antiinflammatory effects.
(§4) The evaluation test was carried out using Wister male rats (i.e., body weight =110-130 g, 8 rats in each group) according to a Winter et al method set forth in "Proceedings of the Society for Experimental Biology & Medicine, 111, p 554, 1962).
(§5) The sample compounds listed in Table 4 were dispersed in a 0.5% aqueous carboxymethyl cellulose solution and orally administered in a dosage of 100 mg/kg. One hour after the administration, 0.1 ml of a 1% λ-carrageenan/physiological saline was subcutaneously applied to the foot pad of one paw of the rat as an inflammatory inducing substance. Thus, the edema was caused. The volumes of the foot pad were measured in the predetermined constant time period before and after the administration and the increase (V1) in the volume was calculated. On the other hand, the increase (V0) in the volume of the foot pad of the control rats, to which the aqueous 0.5% carboxymethyl cellulose solution containing no test sample compounds, was determined by injecting the λ-carageenan. Thus, the inhibition (%) of the carageenan edema was calculated as follows: [formula] The antiinflammatory activity is high when this value is large.
The evaluation test of 2-furanmethyl-N-(2,3-xylyl) anthranilate was carried out in the same manner as in Evaluation Test Example 3.

[5] = system: UV induced erythema; assay: Evaluation Test Example 6 (Antiinflammatory Activity), ultraviolet erythema method; assay type: in vivo, guinea pig; settings: topical; for Prevention % (UV induced erythema): 25 μg/cm^2, 3 hours after UV irradiation
Description: (§6) Healthy Hartley strain albino guinea pigs (i.e., body weight=450-500 g, 10 pigs in each group) were used as the test animals. The back skin of the guinea pigs was clipped and shaved, and sections having a size of 1.41 cm×1.41 cm were prepared in the back skin, by using a rubber plate, symmetrically spaced from the back center line. The divided sections were irradiated with ultraviolet ray having a medium wavelength (i.e., 280-320 nm, λmax =305 nm) to induce erythema. After the UV irradiation, 10 μl of a solution of the test sample compound in olive oil was applied to the sections on one side. The formation of the erythema was observed over a period of time. The average erythema (E1) in the section to which the sample compound was applied and the average erythema (E0) in the section to which no sample compounds were applied were measured. […] [formula] When the inhibitory value (%) is large, the antiinflammatory activity of the sample compound is high.
The anti-inflammatory activity test of 2-furanmethyl-N-(2,3-xylyl)anthranilate was carried out in the same manner as in Evaluation Test Example 5.

[6] = system: carrageenan foot pad edema; assay: Evaluation Test Example 3 (Antiinflammatory Activity), rat/carrageenan foot pad edema method; assay type: in vivo; settings: oral, 100 mg/kg, 5 hours after λ-carrageenan injection
Description: as §3, §4, §5

[7] = background art; cited from earlier work
[8] = system: UV induced erythema; assay: Evaluation Test Example 5 (Antiinflammatory Activity), ultraviolet erythema method; assay type: in vivo, guinea pig; settings: topical, 25 μg/cm^2, 3 hours after UV irradiation
Description: The evaluation test of N-(2,3-xylyl) anthranilic acid derivatives was carried out according to the so-called ultraviolet erythema method.
as §6

[9] = oral administration, background art; cited from earlier work
[10] = in vivo; settings: mouse, oral, ddY male mice, 7 days of observation
Description: The evaluation test was carried out using ddY male mice (i.e., body weight =18 to 22 g, 10 mice in each group).
as §2, with “compound” for “compounds”, “2 was” for “3 were”, “0.5%” for “2.0%”, “number during 7 days of observation” for “number”, “Litchfield Wilcoxon” for “Van Der Werden”

Cc1cccc(Nc2ccccc2C(=O)OCCc2ccccn2)c1C [2-(2-pyridyl)ethyl-N-(2,3-xylyl)anthranilate]
Inhibition % (pain induced by brewer's yeast) [1]: 45.5%

CC(C)Cc1ccc(C(C)C(=O)OCc2ccccn2)cc1 (centres unmarked) [2-(p-isobutylphenyl)propionic acid-2-pyridylmethyl ester, reference compound]
Inhibition % (pain induced by brewer's yeast) [1]: 39.2%

Cc1cccc(Nc2ccccc2C(=O)OCc2ccco2)c1C [2-furanmethyl-N-(2,3-xylyl)anthranilate]
LD50 relative to known N-(2,3-xylyl)anthranilic acid ([2]; oral): about 4 times higher | toxicity ([2]; oral acute toxicity, in words): very low | LD50 [3]: 5480 mg/kg | Prevention % (carrageenan edema) [4]: 50.7% | edema inhibitory activity versus N-(2,3-xylyl)anthranilic acid ([4]; in words): as strong as for the known N-(2,3-xylyl)anthranilic acid | Prevention % (UV induced erythema) [5]: 54.3% | erythema [inhibition] versus N-(2,3-xylyl)anthranilic acid ([5]; 25 μg/cm^2, in words): stronger than that of the known N-(2,3-xylyl)anthranilic acid | Inhibition % (pain induced by brewer's yeast) [1]: 56.5%

Cc1cccc(Nc2ccccc2C(=O)OCc2ccccn2)c1C [2-pyridylmethyl-N-(2,3-xylyl)anthranilate]
Inhibition % (pain induced by brewer's yeast) [1]: 53.6%

Cc1cccc(Nc2ccccc2C(=O)OCc2cccnc2)c1C [3-pyridylmethyl-N-(2,3-xylyl)anthranilate]
Inhibition % (pain induced by brewer's yeast) [1]: 48.3%

Cc1cccc(Nc2ccccc2C(=O)O)c1C [N-(2,3-xylyl)anthranilic acid, reference compound]
Inhibition % (carrageenan edema) [6]: 56.8% | solubility in water, an alcohol, or an oil [7]: very difficult to dissolve | Prevention % (carrageenan edema) [4]: 46.8% | Inhibition % (UV induced erythema) [8]: 32.8% | Prevention % (UV induced erythema) [5]: 35.4% | Inhibition % (pain induced by brewer's yeast) [1]: 32.8% | side effects [9]: various side effects including enterogasteric disorders, renal disorders, and vertigo occur

Cc1cccc(Nc2ccccc2C(=O)OCc2ccccn2)c1C [drawing 4]
LD50 at 168 h [10]: 4420 mg/kg

Cc1cccc(Nc2ccccc2C(=O)OCc2cccnc2)c1C [drawing 5]
LD50 at 168 h [10]: 3820 mg/kg

Cc1cccc(Nc2ccccc2C(=O)OCc2ccncc2)c1C [drawing 6]
LD50 at 168 h [10]: 4850 mg/kg

Cc1cccc(Nc2ccccc2C(=O)OCCc2ccccn2)c1C [drawing 7]
LD50 at 168 h [10]: 4100 mg/kg

Cc1cccc(Nc2ccccc2C(=O)OCCCc2cccnc2)c1C [drawing 8]
LD50 at 168 h [10]: 3750 mg/kg

Cc1cccc(Nc2ccccc2C(=O)OCc2ccccn2)c1C [drawing 9]
Inhibition % (carrageenan edema) [6]: 61.3%

Cc1cccc(Nc2ccccc2C(=O)OCc2cccnc2)c1C [drawing 10]
Inhibition % (carrageenan edema) [6]: 55.2%

Cc1cccc(Nc2ccccc2C(=O)OCc2ccncc2)c1C [drawing 11]
Inhibition % (carrageenan edema) [6]: 53.5%

Cc1cccc(Nc2ccccc2C(=O)OCc2ccccn2)c1C [drawing 12]
Inhibition % (UV induced erythema) [8]: 47.6%

Cc1cccc(Nc2ccccc2C(=O)OCc2cccnc2)c1C [drawing 13]
Inhibition % (UV induced erythema) [8]: 51.3%

Cc1cccc(Nc2ccccc2C(=O)OCc2ccncc2)c1C [drawing 14]
Inhibition % (UV induced erythema) [8]: 43.1%

Cc1cccc(Nc2ccccc2C(=O)OCCc2ccccn2)c1C [drawing 15]
Inhibition % (UV induced erythema) [8]: 35.4%

Cc1cccc(Nc2ccccc2C(=O)OCCCc2cccnc2)c1C [drawing 16]
Inhibition % (UV induced erythema) [8]: 33.2%
